Results reported in patent publication US11926616B2, “Aminopyrazine diol compounds as PI3K-γ inhibitors” (Incyte Corporation, priority 2018, dated 2024).

Experiments:
[1] = molecular target: PI3Kγ (p110γ) Recombinant Human Protein (Homo sapiens (Human), UniProt P48736); experiment: PI3K-γ Scintillation Proximity Assay; format: biochemical; details: 20 μM PIP2, 2 μM ATP, 13 nM PI3Kγ, 120 min, room temperature
From the text: Example B. PI3K-γ Scintillation Proximity Assay Materials: [γ-^33P]ATP (10 mCi/mL) and Wheat Germ Agglutinin (WGA) YSi SPA Scintillation Beads was purchased from Perkin Elmer (Waltham, MA). Lipid kinase substrate, D-myo-Phosphatidylinositol 4,5-bisphosphate (PtdIns(4,5)P2)D (+)-sn-1,2-di-O-octanoylglyceryl, 3-O-phospho linked (PIP2), CAS 204858-53-7, was purchased from Echelon Biosciences (Salt Lake City, UT). PI3Kγ (p110γ) Recombinant Human Protein was purchased from Life technology (Grand Island, NY). ATP, MgCl2, DTT, EDTA, MOPS and CHAPS were purchased from Sigma Aldrich (St. Louis, MO). The kinase reaction was conducted in polystyrene 384-well Greiner Bio-one white plate from Thermo Fisher Scientific in a final volume of 25 μL. Inhibitors were first diluted serially in DMSO and added to the plate wells before the addition of other reaction components. The final concentration of DMSO in the assay was 2%. The PI3Kγ assay was carried out at room temperature in 20 mM MOPS, pH 6.7, 10 mM MgCl2, 5 mM DTT and CHAPS 0.03%. Reactions were initiated by the addition of ATP, the final reaction mixture consisted of 20 μM PIP2, 2 μM ATP, 0.5 μCi [γ-^33P] ATP, 13 nM PI3Kγ. Reactions were incubated for 120 min and terminated by the addition of 40 μL SPA beads suspended in quench buffer: 163 mM potassium phosphate pH 7.8, 20% glycerol, 25 mM EDTA. The final concentration of SPA beads is 1.0 mg/mL. After the plate sealing, plates were shaken overnight at room temperature and centrifuged at 1500 rpm for 10 min, the radioactivity of the product was determined by scintillation counting on Topcount (Perkin-Elmer). IC50 determination was performed by fitting the curve of percent of the solvent control activity versus the log of the inhibitor concentration using the GraphPad Prism 6.0 software.

[2] = molecular target: PI3Kδ (p110δ/p85α) Recombinant Human Protein (Homo sapiens (Human), UniProt O00329); experiment: PI3Kδ Scintillation Proximity Assay; format: biochemical; details: 20 μM PIP2, 2 μM ATP, 3.4 nM PI3Kδ, 120 min, room temperature
From the text: Example C. PI3Kδ Scintillation Proximity Assay Materials: [γ-^33P]ATP (10 mCi/mL) and Wheat Germ Agglutinin (WGA) YSi SPA Scintillation Beads was purchased from Perkin Elmer (Waltham, MA). Lipid kinase substrate, D-myo-Phosphatidylinositol 4,5-bisphosphate (PtdIns(4,5)P2)D (+)-sn-1,2-di-O-octanoylglyceryl, 3-O-phospho linked (PIP2), CAS 204858-53-7, was purchased from Echelon Biosciences (Salt Lake City, UT). PI3Kδ (p110δ/p85α) Recombinant Human Protein was purchased from Eurofins (St Charles, MO). ATP, MgCl2, DTT, EDTA, MOPS and CHAPS were purchased from Sigma Aldrich (St. Louis, MO). The kinase reaction was conducted in polystyrene 384-well Greiner Bio-one white plate from Thermo Fisher Scientific in a final volume of 25 μL. Inhibitors were first diluted serially in DMSO and added to the plate wells before the addition of other reaction components. The final concentration of DMSO in the assay was 2%. The PI3Kδ assay was carried out at room temperature in 20 mM MOPS, pH 6.7, 10 mM MgCl2, 5 mM DTT and CHAPS 0.03%. Reactions were initiated by the addition of ATP, the final reaction mixture consisted of 20 μM PIP2, 2 μM ATP, […] [γ-^33P] ATP, 3.4 nM PI3Kδ. Reactions were incubated for 120 min and terminated by the addition of 40 μL SPA beads suspended in quench buffer: 163 mM potassium phosphate pH 7.8, 20% glycerol, 25 mM EDTA. The final concentration of SPA beads is 1.0 mg/mL. After the plate sealing, plates were shaken overnight at room temperature and centrifuged at 1500 rpm for 10 min, the radioactivity of the product was determined by scintillation counting on Topcount (PerkinElmer). IC50 determination was performed by fitting the curve of percent of the solvent control activity versus the log of the inhibitor concentration using the GraphPad Prism 6.0 software.

[3] = system: Phosphorylated Ribosomal Protein S6 (RPS6) in THP-1 cells; experiment: THP-1 RPS6 ELISA Assay; format: cell-based, Human; details: Homo sapiens; THP-1 cells, serum starved, 2 hours compound, 10 nM MCP-1 for 15 minutes, Phospho-RPS6 ELISA; read-out: PI3Kγ_THP1_RPS6_ELISA IC50
Protocol: Example A. THP-1 RPS6 ELISA Assay
To measure the Phosphorylated Ribosomal Protein S6 (RPS6) in cell lysates, THP-1 cells (Human Acute Monocytic Leukemia) are purchased from ATCC (Manassas, VA) and maintained in RPMI with 10% FBS (Gibco/Life Technologies, Carlsbad, CA). For the assay, THP-1 cells are serum starved overnight in RPMI, then plated in RPMI (2×10^5 cells/well in 90 μL) into 96-well flat-bottom tissue culture treated plates (Corning, Corning, NY), in the presence or absence of a concentration range of test compounds. Covered plates are incubated for 2 hours at 37° C., 5% CO2 then treated with or without 10 nM MCP-1(MYBioSource, San Diego, CA) for 15 minutes at 37° C., 5% CO2. Plates are centrifuged at 1600 RPM and supernatants are removed. Cells are lysed in Lysis Buffer (Cell Signaling, Danvers, MA) with Protease Inhibitor (Calbiochem/EMD, Germany), PMSF (Sigma, St Louis MO), HALTS (Thermo Fisher, Rockford, IL) for 30 min on wet ice. Cell lysates are frozen at −80° C. before testing. The lysates are tested in the Human/Mouse/Rat Phospho-RPS6 ELISA (R&D Systems, Inc. Minn, MN). The plate is measured using a microplate reader (SpectraMax M5—Molecular Devices, LLC Sunnyvale, CA) set to 450 nm with a wavelength correction of 540. IC50 determination is performed by fitting the curve of inhibitor percent inhibition versus the log of the inhibitor concentration using the GraphPad Prism 5.0 software.

Chain of PI3Kγ (p110γ) Recombinant Human Protein (P48736 whole entry): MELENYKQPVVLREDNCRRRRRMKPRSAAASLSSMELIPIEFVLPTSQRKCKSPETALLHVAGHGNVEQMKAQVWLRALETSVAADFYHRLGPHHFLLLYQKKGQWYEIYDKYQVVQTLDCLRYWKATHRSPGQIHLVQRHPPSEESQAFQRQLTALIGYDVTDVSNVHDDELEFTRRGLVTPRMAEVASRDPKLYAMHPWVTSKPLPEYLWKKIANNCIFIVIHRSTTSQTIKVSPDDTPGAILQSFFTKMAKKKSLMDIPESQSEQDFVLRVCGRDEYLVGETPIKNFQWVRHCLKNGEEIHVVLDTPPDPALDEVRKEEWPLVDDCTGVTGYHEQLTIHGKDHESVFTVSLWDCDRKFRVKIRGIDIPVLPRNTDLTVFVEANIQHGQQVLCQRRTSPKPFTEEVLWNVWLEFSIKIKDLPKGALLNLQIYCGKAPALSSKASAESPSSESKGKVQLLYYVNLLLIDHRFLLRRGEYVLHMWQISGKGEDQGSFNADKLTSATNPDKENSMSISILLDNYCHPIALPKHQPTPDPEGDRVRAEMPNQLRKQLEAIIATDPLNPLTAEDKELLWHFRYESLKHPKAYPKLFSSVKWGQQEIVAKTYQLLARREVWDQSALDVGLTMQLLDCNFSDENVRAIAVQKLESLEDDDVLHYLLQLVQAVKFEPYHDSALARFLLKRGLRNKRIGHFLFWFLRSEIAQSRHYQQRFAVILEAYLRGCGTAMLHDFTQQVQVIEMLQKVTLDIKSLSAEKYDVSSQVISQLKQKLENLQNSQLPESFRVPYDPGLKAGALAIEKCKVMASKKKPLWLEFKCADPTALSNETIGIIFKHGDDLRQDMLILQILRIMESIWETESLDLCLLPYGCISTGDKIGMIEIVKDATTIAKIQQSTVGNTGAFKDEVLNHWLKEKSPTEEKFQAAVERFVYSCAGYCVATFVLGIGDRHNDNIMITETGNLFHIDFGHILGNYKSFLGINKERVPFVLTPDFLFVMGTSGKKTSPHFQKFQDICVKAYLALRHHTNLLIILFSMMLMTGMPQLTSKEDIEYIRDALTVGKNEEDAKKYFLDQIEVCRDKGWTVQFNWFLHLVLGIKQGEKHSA
Chain of PI3Kδ (p110δ/p85α) Recombinant Human Protein (O00329 whole entry): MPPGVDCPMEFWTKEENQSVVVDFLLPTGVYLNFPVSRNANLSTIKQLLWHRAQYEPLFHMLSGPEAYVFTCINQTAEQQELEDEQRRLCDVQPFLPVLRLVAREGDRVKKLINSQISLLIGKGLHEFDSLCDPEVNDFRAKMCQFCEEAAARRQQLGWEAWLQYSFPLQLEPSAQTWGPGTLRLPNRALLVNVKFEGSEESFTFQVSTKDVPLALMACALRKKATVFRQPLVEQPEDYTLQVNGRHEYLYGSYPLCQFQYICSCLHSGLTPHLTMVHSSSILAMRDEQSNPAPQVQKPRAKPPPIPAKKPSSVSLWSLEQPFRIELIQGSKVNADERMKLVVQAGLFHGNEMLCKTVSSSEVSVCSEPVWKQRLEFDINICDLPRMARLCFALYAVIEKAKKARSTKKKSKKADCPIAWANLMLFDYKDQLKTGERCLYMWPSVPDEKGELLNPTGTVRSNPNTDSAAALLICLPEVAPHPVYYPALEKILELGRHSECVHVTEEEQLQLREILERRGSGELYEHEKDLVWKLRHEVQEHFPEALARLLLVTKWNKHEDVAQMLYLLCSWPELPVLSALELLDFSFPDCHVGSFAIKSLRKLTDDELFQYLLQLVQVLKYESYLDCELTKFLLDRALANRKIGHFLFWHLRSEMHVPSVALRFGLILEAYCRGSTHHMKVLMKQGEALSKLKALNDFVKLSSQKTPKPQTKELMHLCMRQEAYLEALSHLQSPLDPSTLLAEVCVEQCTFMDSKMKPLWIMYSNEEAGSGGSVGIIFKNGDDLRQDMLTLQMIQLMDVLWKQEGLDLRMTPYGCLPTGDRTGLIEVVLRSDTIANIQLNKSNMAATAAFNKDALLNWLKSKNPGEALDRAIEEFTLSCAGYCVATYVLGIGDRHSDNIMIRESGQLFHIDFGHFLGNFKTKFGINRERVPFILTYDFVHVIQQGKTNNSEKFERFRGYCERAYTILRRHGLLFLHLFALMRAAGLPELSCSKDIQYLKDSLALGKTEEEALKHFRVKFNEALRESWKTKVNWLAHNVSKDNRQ
Chain of PI3Kδ (p110δ/p85α) Recombinant Human Protein (P27986 whole entry partner): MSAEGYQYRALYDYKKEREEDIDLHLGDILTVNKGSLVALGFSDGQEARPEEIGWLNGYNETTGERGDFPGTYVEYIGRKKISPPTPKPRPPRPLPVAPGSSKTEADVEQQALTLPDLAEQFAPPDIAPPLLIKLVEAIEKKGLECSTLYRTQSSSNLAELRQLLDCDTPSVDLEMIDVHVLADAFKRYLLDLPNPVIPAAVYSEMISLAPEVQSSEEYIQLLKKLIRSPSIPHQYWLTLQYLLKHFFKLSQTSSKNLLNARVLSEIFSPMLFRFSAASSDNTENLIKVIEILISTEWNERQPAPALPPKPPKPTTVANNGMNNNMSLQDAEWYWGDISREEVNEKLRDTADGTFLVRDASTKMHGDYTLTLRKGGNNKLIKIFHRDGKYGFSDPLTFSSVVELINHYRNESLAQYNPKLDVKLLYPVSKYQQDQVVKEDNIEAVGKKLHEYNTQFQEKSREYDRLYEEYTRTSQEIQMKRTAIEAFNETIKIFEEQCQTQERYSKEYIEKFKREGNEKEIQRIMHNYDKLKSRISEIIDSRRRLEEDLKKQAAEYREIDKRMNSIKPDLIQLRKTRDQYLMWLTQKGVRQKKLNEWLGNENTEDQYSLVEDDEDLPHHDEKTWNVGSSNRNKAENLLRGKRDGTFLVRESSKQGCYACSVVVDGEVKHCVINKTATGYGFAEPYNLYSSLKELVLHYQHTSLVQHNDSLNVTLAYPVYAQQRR

Row | SMILES | IC50 [1] [nM] | IC50 [2] [nM] | IC50 [3] [nM]
1 | [2H]C([2H])([2H])c1ccc(C(O)(CO)C(F)F)cc1-c1cnc(N)c(C(=O)NC23CCC(O)(CC2)C3)n1 (single isomer, unassigned) [Example 18, 3-Amino-6-(5-(1,1-difluoro-2,3-dihydroxypropan-2-yl)-2-(methyl-d3)phenyl)-N-(4-hydroxybicyclo[2.2.1]heptan-1-yl)pyrazine-2-carboxamide] | ≤ 100 | ≤ 100 | < 100
2 | [2H]C([2H])([2H])c1ccc(C(O)(CO)C(F)(F)F)cc1-c1cnc(N)c(C(=O)N[C@H]2C[C@](O)(C(F)(F)F)C2)n1 (single isomer, unassigned) [Example 29] | ≤ 100 | ≤ 100 | < 100
3 | [2H]C([2H])([2H])c1ccc(C(O)(CO)C(F)(F)F)cc1-c1cnc(N)c(C(=O)N[C@]2(C)C[C@H](O)C2)n1 (single isomer, unassigned) [Example 30] | ≤ 100 | ≤ 100 | < 100
4 | [2H]C([2H])([2H])c1ccc(C(O)(CO)C(F)(F)F)cc1-c1cnc(N)c(C(=O)NC23CCC(CO)(C2)C3)n1 (single isomer, unassigned) [Example 31] | ≤ 100 | ≤ 100 | < 100
5 | [2H]C([2H])([2H])c1ccc(C(O)(CO)C(F)(F)F)cc1-c1cnc(N)c(C(=O)NC23CCC(O)(C2)C3)n1 (single isomer, unassigned) [Example 37] | ≤ 100 | ≤ 100 | < 100
6 | [2H]C([2H])([2H])c1ccc(C(O)(CO)C(F)F)cc1-c1cnc(N)c(C(=O)N[C@H]2CCCC[C@@H]2O)n1 (single isomer, unassigned) [Example 38] | ≤ 100 | < 2000 | < 500
7 | [2H]C([2H])([2H])c1ccc(C(O)(CO)C(F)F)cc1-c1cnc(N)c(C(=O)N[C@@H]2CCCC[C@H]2O)n1 (single isomer, unassigned) [Example 39] | ≤ 100 | < 2000 | < 500
8 | [2H]C([2H])([2H])c1ccc(C(O)(C(O)C(F)(F)F)C(F)(F)F)cc1-c1cnc(N)c(-c2c[nH]nc2C)n1 (centres unmarked) [Example 20, 2-(3-(5-Amino-6-(3-methyl-1H-pyrazol-4-yl)pyrazin-2-yl)-4-(methyl-d3)phenyl)-1,1,1,4,4,4-hexafluorobutane-2,3-diol] | ≤ 100 | ≤ 500 | 

More lines, now with the values ahead:

Row | IC50 [1] [nM] | IC50 [2] [nM] | IC50 [3] [nM] | SMILES
9 | ≤ 100 | ≤ 100 | < 100 | [2H]C([2H])([2H])n1nccc1-c1nc(-c2cc(C(O)(CO)C(F)(F)F)ccc2C)cnc1N (single isomer, unassigned) [Example 1a, 2-(3-(5-Amino-6-(1-(methyl-d3)-1H-pyrazol-5-yl)pyrazin-2-yl)-4-methylphenyl)-3,3,3-trifluoropropane-1,2-diol]
10 | ≤ 100 | ≤ 100 | < 100 | Cc1ncc(-c2nc(-c3cc(C(O)(CO)C(F)(F)F)ccc3C)cnc2N)o1 (single isomer, unassigned) [Example 9, 2-(3-(5-Amino-6-(2-methyloxazol-5-yl)pyrazin-2-yl)-4-methylphenyl)-3,3,3-trifluoropropane-1,2-diol]
11 | ≤ 100 | ≤ 100 | < 100 | Cc1ccc(C(O)(CO)C(F)(F)F)cc1-c1cnc(N)c(-n2cccn2)n1 (single isomer, unassigned) [Example 12, 2-(3-(5-Amino-6-(1H-pyrazol-1-yl)pyrazin-2-yl)-4-methylphenyl)-3,3,3-trifluoropropane-1,2-diol]
12 | ≤ 100 | ≤ 100 | < 100 | [2H]C([2H])([2H])c1ccc(C(O)(CO)C(F)(F)F)cc1-c1cnc(N)c(-c2cnc(C)o2)n1 (single isomer, unassigned) [Example 16, 2-(3-(5-Amino-6-(2-methyloxazol-5-yl)pyrazin-2-yl)-4-(methyl-d3)phenyl)-3,3,3-trifluoropropane-1,2-diol]
13 | ≤ 100 | ≤ 100 | < 100 | [2H]C([2H])([2H])c1ccc(C(O)(CO)C(F)(F)F)cc1-c1cnc(N)c(C(=O)NC2CCOCC2)n1 (single isomer, unassigned) [Example 17, 3-Amino-6-(2-(methyl-d3)-5-(1,1,1-trifluoro-2,3-dihydroxypropan-2-yl)phenyl)-N-(tetrahydro-2H-pyran-4-yl)pyrazine-2-carboxamide]
14 | ≤ 100 | ≤ 500 | < 500 | [2H]C([2H])([2H])c1ccc(C(O)(C(C)O)C(F)(F)F)cc1-c1cnc(N)c(C(=O)NC2CCOCC2)n1 (single isomer, unassigned) [Example 19, 3-Amino-6-(2-(methyl-d3)-5-(1,1,1-trifluoro-2,3-dihydroxybutan-2-yl)phenyl)-N-(tetrahydro-2H-pyran-4-yl)pyrazine-2-carboxamide]
15 | ≤ 100 | ≤ 500 | < 500 | Cc1ccc(C(O)(CO)C(F)(F)F)cc1-c1cnc(N)c(C2CC(C(=O)N3CC(O)C3)C2)n1 (single isomer, unassigned) [Example 24, (3-(3-Amino-6-(2-methyl-5-(1,1,1-trifluoro-2,3-dihydroxypropan-2-yl)phenyl)pyrazin-2-yl)cyclobutyl)(3-hydroxyazetidin-1-yl)methanone]
16 | ≤ 100 | ≤ 100 | < 100 | [2H]C([2H])([2H])c1ccc(C(O)(CO)C(F)(F)F)cc1-c1cnc(N)c(C(=O)NC2CC(C#N)C2)n1 (single isomer, unassigned) [Example 26]
17 | ≤ 100 | ≤ 500 | < 100 | [2H]C([2H])([2H])c1ccc(C(O)(CO)C(F)(F)F)cc1-c1cnc(N)c(C(=O)N[C@H]2CCCC[C@@H]2O)n1 (single isomer, unassigned) [Example 27]
18 | ≤ 100 | ≤ 500 | < 100 | [2H]C([2H])([2H])c1ccc(C(O)(CO)C(F)(F)F)cc1-c1cnc(N)c(C(=O)NC2CCOCC2O)n1 (single isomer, unassigned) [Example 28]
